Reference: PubChem BioAssay AID256 (DTP/NCI, 2004)
“And” between values parts separate entries of the source, which are not always exact repeats. Equal values may be shown once. Inconclusive results and toxic doses are left out.

Tested on: CD2F1 mice, L1210 leukemia ip, survival T/C
Test: NCI In Vivo Anticancer Drug Screen. Data for tumor model L1210 Leukemia (intraperitoneal) in CD2F1 (CDF1) mice
Conditions: higher = longer survival
Method in brief: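 Read-out first: treated-group measurement over vehicle-control measurement, expressed as a ratio. Animals bore a transplanted tumor line and were dosed with compound or vehicle.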

[1] = endpoint: mean survival time, dose: 100.0 mg/kg/injection, schedule: Q01DX009 (ip), vehicle: saline with Tween-80
[2] = endpoint: mean survival time, dose: 200.0 mg/kg/injection, schedule: Q01DX009 (ip), vehicle: saline with Tween-80
[3] = endpoint: mean survival time, dose: 400.0 mg/kg/injection, schedule: Q01DX009 (ip), vehicle: saline with Tween-80
[4] = endpoint: mean survival time, dose: 100.0 mg/kg/injection, schedule: Q01DX001 (ip), vehicle: saline
[5] = endpoint: mean survival time, dose: 200.0 mg/kg/injection, schedule: Q01DX001 (ip), vehicle: saline
[6] = endpoint: mean survival time, dose: 400.0 mg/kg/injection, schedule: Q01DX001 (ip), vehicle: saline
[7] = endpoint: mean survival time, dose: 100.0 mg/kg/injection, schedule: Q04DX003 (ip), vehicle: saline with Tween-80
[8] = endpoint: mean survival time, dose: 200.0 mg/kg/injection, schedule: Q04DX003 (ip), vehicle: saline with Tween-80
[9] = endpoint: mean survival time, dose: 400.0 mg/kg/injection, schedule: Q04DX003 (ip), vehicle: saline with Tween-80
[10] = endpoint: mean survival time, dose: 50.0 mg/kg/injection, schedule: Q01DX009 (ip), vehicle: saline with Tween-80

In the case of CCCCCCCC/C=C/CCCCCCCCCCCCBr, the T/C [1] is reported as 104 % of control, the T/C (endpoint: mean survival time, dose: 100.0 mg/kg/injection, schedule: Q04DX003 (ip), vehicle: saline) is reported as 98 % of control and the T/C [2] is reported as 93 % of control. For the same molecule, the T/C (endpoint: mean survival time, dose: 200.0 mg/kg/injection, schedule: Q04DX003 (ip), vehicle: saline) was 97 % of control, the T/C [3] was 103 % of control and the T/C (endpoint: mean survival time, dose: 400.0 mg/kg/injection, schedule: Q04DX003 (ip), vehicle: saline) was 92 % of control.

For COc1ccc2[nH]c3c(C)c4cc[n+](C)cc4c(C)c3c2c1, the T/C (endpoint: mean survival time, dose: 3.13 mg/kg/injection, schedule: Q01DX009 (ip), vehicle: saline) was 120 % of control, the T/C (endpoint: mean survival time, dose: 6.25 mg/kg/injection, schedule: Q01DX009 (ip), vehicle: saline with Tween-80) was 122 % of control and the T/C (endpoint: mean survival time, dose: 6.25 mg/kg/injection, schedule: Q01DX009 (ip), vehicle: saline) was 120 % of control. For the same molecule, the T/C (endpoint: mean survival time, dose: 6.25 mg/kg/injection, schedule: Q04DX003 (ip), vehicle: saline with Tween-80) was 105 % of control, the T/C (endpoint: mean survival time, dose: 12.5 mg/kg/injection, schedule: Q01DX009 (ip), vehicle: saline with Tween-80) was 87 % of control and the T/C (endpoint: mean survival time, dose: 12.5 mg/kg/injection, schedule: Q01DX009 (ip), vehicle: saline) was 110 % of control. The T/C (endpoint: mean survival time, dose: 12.5 mg/kg/injection, schedule: Q04DX003 (ip), vehicle: saline with Tween-80) was 108 % of control, the T/C (endpoint: mean survival time, dose: 25.0 mg/kg/injection, schedule: Q04DX003 (ip), vehicle: saline sonified) was 116 % of control and the T/C (endpoint: mean survival time, dose: 25.0 mg/kg/injection, schedule: Q04DX003 (ip), vehicle: saline with Tween-80) was 101 % of control. The T/C (endpoint: mean survival time, dose: 37.5 mg/kg/injection, schedule: Q04DX003 (ip), vehicle: saline sonified) was 86 % of control.

For O=P1(N(CCCl)CCCl)NCC2(O1)C1CC3CC(C1)CC2C3 (stereo unspecified), the T/C (endpoint: mean survival time, dose: 15.6 mg/kg/injection, schedule: Q01DX001 (ip), vehicle: distilled water + Tween-80) was 101 % of control, the T/C (endpoint: mean survival time, dose: 31.3 mg/kg/injection, schedule: Q01DX001 (ip), vehicle: distilled water + Tween-80) was 96 % of control and the T/C (endpoint: mean survival time, dose: 62.5 mg/kg/injection, schedule: Q01DX001 (ip), vehicle: distilled water + Tween-80) was 101 % of control. For the same molecule, the T/C (endpoint: mean survival time, dose: 125.0 mg/kg/injection, schedule: Q01DX001 (ip), vehicle: distilled water + Tween-80) was 96 % of control, the T/C (endpoint: mean survival time, dose: 250.0 mg/kg/injection, schedule: Q01DX001 (ip), vehicle: distilled water + Tween-80) was 96 % of control and the T/C (endpoint: mean survival time, dose: 500.0 mg/kg/injection, schedule: Q01DX001 (ip), vehicle: distilled water + Tween-80) was 91 % of control.

CC(NC1CCCCC1)c1ccc(O)cc1O (stereo unspecified) was tested, and the T/C (endpoint: mean survival time, dose: 75.0 mg/kg/injection, schedule: Q01DX001 (ip), vehicle: other) was 93 % of control and the T/C (endpoint: mean survival time, dose: 150.0 mg/kg/injection, schedule: Q01DX001 (ip), vehicle: other) was 87 % of control.

O=[N+]([O-])c1ccc2c([N+](=O)[O-])cc(O)cc2c1 was tested, and the T/C (endpoint: mean survival time, dose: 100.0 mg/kg/injection, schedule: Q01DX001 (ip), vehicle: saline with Tween-80) was 95 % of control, the T/C [1] was 96 % of control and the T/C (endpoint: mean survival time, dose: 200.0 mg/kg/injection, schedule: Q01DX001 (ip), vehicle: saline with Tween-80) was 105 % of control. For the same molecule, the T/C [2] was 96 % of control, the T/C (endpoint: mean survival time, dose: 400.0 mg/kg/injection, schedule: Q01DX001 (ip), vehicle: saline with Tween-80) was 100 % of control and the T/C [3] was 98 % of control.

In the case of CCC(C)(CC(=O)OC)C(=O)OC (stereo unspecified), the T/C [4] is reported as 108 % of control, the T/C [5] is reported as 104 % of control and the T/C [6] is reported as 108 % of control.

In the case of COC(=O)C1(C)CCCC2(C)C1CCC1(O)C(O)C(C(C)C)=CCC21 (stereo unspecified), the T/C [7] is reported as 92 % of control, the T/C [8] is reported as 93 % of control and the T/C [9] is reported as 92 % of control.

O=C(Nc1cc(Cl)ccc1Cl)c1ccc(C(=O)Nc2cc(Cl)ccc2Cl)cc1 was tested, and the T/C [1] was 94 % of control, the T/C [7] was 92 % of control and the T/C [2] was 95 % of control. For the same molecule, the T/C [8] was 96 % of control, the T/C [3] was 94 % of control and the T/C [9] was 88 % of control.

With CN1C(=O)C2CCC1C(O)C2 (stereo unspecified) the T/C (endpoint: mean survival time, dose: 25.0 mg/kg/injection, schedule: Q04DX002 (ip), vehicle: saline with Tween-80) was 98 % of control, the T/C (endpoint: mean survival time, dose: 50.0 mg/kg/injection, schedule: Q04DX002 (ip), vehicle: saline with Tween-80) was 106 % of control and the T/C (endpoint: mean survival time, dose: 100.0 mg/kg/injection, schedule: Q04DX002 (ip), vehicle: saline with Tween-80) was 98 % of control. For the same molecule, the T/C (endpoint: mean survival time, dose: 200.0 mg/kg/injection, schedule: Q04DX002 (ip), vehicle: saline with Tween-80) was 95 % of control.

For CCOC(=O)/C(C#N)=C\c1cc(OC)ccc1OC, the T/C (endpoint: mean survival time, dose: 25.0 mg/kg/injection, schedule: Q01DX009 (ip), vehicle: saline with Tween-80) was 102 % of control, the T/C [10] was 94 % of control and the T/C [1] was 104 % of control.

For CC1(C(=O)O)C2C3C=CC(C3)C21 (stereo unspecified), the T/C [1] was 100 % of control, the T/C [2] was 97 % of control and the T/C [3] was 103 % of control.

In the case of CC(Cl)(C(Cl)Cl)C(F)(F)F (stereo unspecified), the T/C (endpoint: mean survival time, dose: 25.0 mg/kg/injection, schedule: Q01DX001 (ip), vehicle: saline) is reported as 102 % of control, the T/C (endpoint: mean survival time, dose: 25.0 mg/kg/injection, schedule: Q01DX009 (ip), vehicle: saline) is reported as 98 % of control and the T/C (endpoint: mean survival time, dose: 50.0 mg/kg/injection, schedule: Q01DX001 (ip), vehicle: saline) is reported as 107 % of control. For the same molecule, the T/C (endpoint: mean survival time, dose: 50.0 mg/kg/injection, schedule: Q01DX009 (ip), vehicle: saline) was 98 % of control, the T/C [4] was 104 % of control and 108 % of control and the T/C (endpoint: mean survival time, dose: 100.0 mg/kg/injection, schedule: Q01DX009 (ip), vehicle: saline) was 98 % of control.

With O=P(O)(NCCCl)NCCCl the T/C [4] was 404 % of control, the T/C [5] was 488 % of control and the T/C (endpoint: median survival time, dose: 25.0 mg/kg/injection, schedule: Q01DX001 (ip), vehicle: saline with Tween-80) was 116 % of control. For the same molecule, the T/C (endpoint: median survival time, dose: 50.0 mg/kg/injection, schedule: Q01DX001 (ip), vehicle: saline with Tween-80) was 160 % of control, the T/C (endpoint: median survival time, dose: 75.0 mg/kg/injection, schedule: Q01DX001 (ip), vehicle: saline) was 356 % of control and the T/C (endpoint: median survival time, dose: 100.0 mg/kg/injection, schedule: Q01DX001 (ip), vehicle: saline with Tween-80) was 160 % of control and 185 % of control. For the same molecule, the T/C (endpoint: median survival time, dose: 100.0 mg/kg/injection, schedule: Q01DX001 (ip), vehicle: saline) was 232 % of control and 410 % of control, the T/C (endpoint: median survival time, dose: 100.0 mg/kg/injection, schedule: Q01DX001 (iv), vehicle: saline) was 219 % of control and the T/C (endpoint: median survival time, dose: 125.0 mg/kg/injection, schedule: Q01DX001 (ip), vehicle: saline) was 202 % of control. The T/C (endpoint: median survival time, dose: 150.0 mg/kg/injection, schedule: Q01DX001 (ip), vehicle: saline) was 205 % of control, the T/C (endpoint: median survival time, dose: 150.0 mg/kg/injection, schedule: Q01DX001 (iv), vehicle: saline) was 86 % of control and the T/C (endpoint: median survival time, dose: 200.0 mg/kg/injection, schedule: Q01DX001 (ip), vehicle: saline with Tween-80) was 191 % of control.

With NC(=S)Nc1ccc(C23CCC(CC2)CC3)cc1 the T/C [10] was 101 % of control, the T/C [1] was 101 % of control and the T/C [2] was 109 % of control.

In the case of O=c1[nH]c(=O)n(C2CCOC2)cc1Br (stereo unspecified), the T/C [4] is reported as 103 % of control, the T/C [5] is reported as 100 % of control and the T/C [6] is reported as 103 % of control.

With NC(N)=N/N=C/c1ccc(Cl)cc1Cl the T/C (endpoint: mean survival time, dose: 8.0 mg/kg/injection, schedule: Q01DX Z (ip), vehicle: saline) was 88 % of control, the T/C (endpoint: mean survival time, dose: 16.0 mg/kg/injection, schedule: Q01DX Z (ip), vehicle: saline) was 96 % of control and the T/C (endpoint: mean survival time, dose: 31.0 mg/kg/injection, schedule: Q01DX Z (ip), vehicle: saline) was 92 % of control. The T/C (endpoint: mean survival time, dose: 62.0 mg/kg/injection, schedule: Q01DX Z (ip), vehicle: saline) was 95 % of control.

N#CN=[N+]([O-])c1ccc(C(=O)O)cc1 was tested, and the T/C (endpoint: mean survival time, dose: 1.87 mg/kg/injection, schedule: Q01DX009 (ip), vehicle: Klucel (hydroxypropylcellulose) (HPC)) was 106 % of control, the T/C (endpoint: mean survival time, dose: 3.75 mg/kg/injection, schedule: Q01DX009 (ip), vehicle: Klucel (hydroxypropylcellulose) (HPC)) was 95 % of control and the T/C (endpoint: mean survival time, dose: 7.5 mg/kg/injection, schedule: Q01DX009 (ip), vehicle: Klucel (hydroxypropylcellulose) (HPC)) was 95 % of control. For the same molecule, the T/C (endpoint: mean survival time, dose: 15.0 mg/kg/injection, schedule: Q01DX009 (ip), vehicle: Klucel (hydroxypropylcellulose) (HPC)) was 96 % of control, the T/C (endpoint: mean survival time, dose: 30.0 mg/kg/injection, schedule: Q01DX009 (ip), vehicle: Klucel (hydroxypropylcellulose) (HPC)) was 98 % of control and the T/C (endpoint: mean survival time, dose: 60.0 mg/kg/injection, schedule: Q01DX009 (ip), vehicle: Klucel (hydroxypropylcellulose) (HPC)) was 106 % of control. For the same molecule, the T/C (endpoint: median survival time, dose: 1.87 mg/kg/injection, schedule: Q01DX009 (ip), vehicle: Klucel (hydroxypropylcellulose) (HPC)) was 101 % of control, the T/C (endpoint: median survival time, dose: 3.75 mg/kg/injection, schedule: Q01DX009 (ip), vehicle: Klucel (hydroxypropylcellulose) (HPC)) was 95 % of control and the T/C (endpoint: median survival time, dose: 7.5 mg/kg/injection, schedule: Q01DX009 (ip), vehicle: Klucel (hydroxypropylcellulose) (HPC)) was 95 % of control. For the same molecule, the T/C (endpoint: median survival time, dose: 15.0 mg/kg/injection, schedule: Q01DX009 (ip), vehicle: Klucel (hydroxypropylcellulose) (HPC)) was 109 % of control and the T/C (endpoint: median survival time, dose: 30.0 mg/kg/injection, schedule: Q01DX009 (ip), vehicle: Klucel (hydroxypropylcellulose) (HPC)) was 93 % of control.
